The subject of one test is MDA-MB-231 cells. Put plainly: In vitro Matrigel invasion assay (chemotaxis towards CXCL12). The test is classed as cell-based. To be noted: Homo sapiens, compound at 100 nM, 200 ng/ml CXCL12 as chemoattractant, 22 h. On the procedure: (§1) EC (effective concentration) was calculated as the concentration at which the compound blocks >50% of CXCR4-targeted peptidomimetic conjugate (rhodamine Red X-TN14003). The inhibition % against the chemoattract, CXCL12 was determined by Matrigel invasion assay using 100 nM of compounds.
(§2) After computer evaluation of chemical libraries, seven compounds were tested by in vitro assays. The first binding assay quantified the affinity of compounds to the receptor by measuring the fluorescence of CXCR4-targeted peptidomimetic conjugate (rhodamine Red X-TN14003) after treating CXCR4-positive with each compound, which presents a lower fluorescent intensity for the compound with higher affinity. […] As a secondary orthogonal functional assay, Matrigel invasion assays were performed which measures the inhibitory efficacies of compounds against the chemotaxis between CXCR4-positive cells and the chemokine, CXCL12.
Matrigel invasion chambers were used for invasion assays. MDA-MB-231 cells were cultured on a layer of Matrigel in the upper chamber with compounds at 100 nM, while 200 ng/ml of CXCL12 was added in the lower chamber as a chemoattractant. […] Invading cells at the bottom of the Matrigel were fixed in methanol and stained with H&E. The percentage of invading cells was determined by counting the H&E-stained cells.

The next test concerns the target T1, CXCR4 (Homo sapiens, UniProt P61073).
T1 construct: endogenous in cells; host or cells: MDA-MB-231
Description: In vitro binding assay: blocking of CXCR4-targeted TN14003 conjugate on MDA-MB-231 cells. The method, then:
as §1, §2
MDA-MB-231 cells were cultured in an eight-well slide chamber for two days. The cells were pre-incubated with the compounds for 15 min, and then fixed with 4% formaldehyde. […] Pictures were analyzed quantitatively with ImageJ. EC (effective concentration) is determined for the concentration at with the compound blocks >50% of CXCR4-targeted TN14003 conjugate using 1, 10, 100, and 1000 nM of compounds. […]

Test [1] deals with CXCR4-expressing infiltrating cells. Put plainly: Immunohistochemistry of paw tissue with anti-CXCR4 antibody. The test is classed as in vivo. To be noted: paw tissue of Z7R-treated mouse vs inflamed tissue. On the procedure: The avidin-biotin complex method was used to detect the proteins CXCR4 with anti-CXCR4 antibody (R&D System) at dilution 1:500. Formalin-fixed and paraffin-embedded tissues were deparaffinized and subsequently microwaved in 10 mM of sodium citrate buffer (pH 6.0) to retrieve antigens. After pre-incubation with hydrogen peroxide, avidin/biotin blocking kit (Invitrogen Co, CA), and horse serum (Vector Laboratories), the primary antibodies were applied overnight at 4° C. temperature. After incubation with the secondary antibody (rabbit anti-mouse biotinylated; Invitrogen Co, CA), the avidin-biotin complex was added and the enzyme activity was visualized with diaminobenzidine (ABC kit, Vector laboratories). Counterstaining was performed with hematoxylin.

Test [2] concerns carrageenan-induced paw edema. Description: In vivo anti-inflammation study, carrageenan-induced mouse paw edema model. The note with it: 10 mg/kg i.p., once a day; mice sacrificed 74 h after carrageenan; n=5. On the procedure: Acute paw inflammation was induced by subcutaneous injection of 50 μL of λ-carrageenan in left hind paw. The mice in the treatment group were all administered Z7R at 10 mg/kg i.p., while control animals received corresponding i.p. injection of vehicle. Acute inflammation was induced by subcutaneous injection of […], of λ-carrageenan (1% w/v in saline) into the left hind paws of male nude mice (6 weeks, 20 g, Jackson Laboratory, Strain JAZ 007850 J:NU); the other hind paw was used as the non-inflammation control. The compounds were administered intraperitoneally (i.p. injection), 30 min after carrageenan challenge with the dose of 10 mg/kg using the formulation of 10% DMSO and 40% (2-hydroxypropyl)-β-cyclodextrin (CD) in PBS, and then once a day following the initial dose. The mice were sacrificed 74 h after inflammation was induced and 2 h after the last injection of the compounds. The hind paws of the mice were photographed, the thicknesses of the paws were measured by a caliper, and the weights of the paws were measured by a balance after transecting at the level of the malleoli. To quantify the edema, the measured values of the untreated group were subtracted from the treated group. The inflammation suppression percentage was calculated by comparing the compound-treated groups to the control group (n=5). Fixed paw tissue was sliced and stained with H&E for histology study.

Molecules are shown by their SMILES.

T1 sequence (P61073 whole entry): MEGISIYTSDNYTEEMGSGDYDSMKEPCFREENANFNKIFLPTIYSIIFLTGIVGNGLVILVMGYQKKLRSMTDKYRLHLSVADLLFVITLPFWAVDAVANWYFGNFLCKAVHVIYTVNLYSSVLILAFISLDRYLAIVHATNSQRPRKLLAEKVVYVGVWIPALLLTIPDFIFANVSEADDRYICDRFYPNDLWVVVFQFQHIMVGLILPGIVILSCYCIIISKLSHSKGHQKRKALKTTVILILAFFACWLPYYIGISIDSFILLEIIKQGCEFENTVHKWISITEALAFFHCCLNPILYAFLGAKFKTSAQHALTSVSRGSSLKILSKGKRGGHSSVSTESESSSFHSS

`N=C(N)NCCCC(N)C(=O)NC1CCN(C(=O)CCn2ccc3ccncc32)CC1` (stereo not drawn) [Z7R, N-(1-(3-(pyrrolo[2,3-c]pyridin-1-yl)propanoyl)piperidin-4-yl)-2-amino-5-guanidinopentanamide]: the inhibition – broadly, the percentage by which the read-out fell short of the control – at 0.1 µM with MDA-MB-231 cells worked out at 78.5%. Besides, the concentration for half-maximal inhibition (IC50) (in general, the concentration at which inhibition is half-maximal) at CXCR4 (fitted with GraphPad Prism 5, read-out: affinity IC50) was determined as 1.25 nM. For the same molecule, in test [1], the “CXCR4-expressing infiltrating cells in carrageenan-induced inflammatory tissue” value is given as “reduced presence of CXCR4s”. Moreover, the “anti-inflammatory activity: reduction of edema (paw) weight vs untreated mice” value in test [2] is 50%.

`NC(C(=O)NC1CCN(C(=O)CCn2ccc3ccncc32)CC1)c1ccccc1` (stereo not drawn) [ZINC 72372983, N-(1-(3-(pyrrolo[2,3-c]pyridin-1-yl)propanoyl)piperidin-4-yl)-2-amino-2-phenylacetamide] came in with an inhibition at 0.1 µM in the test on MDA-MB-231 cells of 69%. Besides, on CXCR4 (compounds tested at 1, 10, 100 and 1000 nM, read-out: binding affinity (EC, effective concentration: concentration at which the compound blocks more than 50% of rhodamine Red X-TN14003)), the EC50 amounted to 100 nM.

Values taken from patent US20230167109A1, “Aminopiperidine Amides, Derivatives, Compositions, and Uses Related to CXCR4 Modulation” (Emory University, priority 2020, published 2023).
